From US20090176772A1, “METHOD OF REVERSING LEFT VENTRICULAR REMODELING” (priority 2004, published 2009)

Experiments:
Assay type in all cases: in vivo, dog
[1] = tested on: dogs with chronic heart failure produced by multiple sequential intracoronary microembolizations; assay: Blood neurohumoral and electrolyte measurements in dogs with chronic heart failure; conditions: mean±SEM; for T-PNE = transmyocardial norepinephrine: aorta minus coronary sinus
Excerpt: (§1) The following example examines the effects of ranolazine alone and in combination with an angiotensin converting enzyme (ACE) inhibitor and in combination with a beta-blocker on the progression of left ventricular (LV) dysfunction and LV chamber remodeling in dogs with chronic heart failure produced by multiple sequential intracoronary microembolizations.
(§2) Chronic LV dysfunction and failure in dogs was produced by multiple sequential intracoronary embolizations with polystyrene Latex microspheres (77-109 μm in diameter) as previously described by Sabbah et al. (1991) Am. J. Physiol. 260:H1379-H1384. Coronary microembolizations were performed during cardiac catheterization under general anesthesia and sterile conditions. Anesthesia was induced using a combination of intravenous injections of hydromorphone (0.22 mg/kg), diazepam (0.2-0.6 mg/kg) and sodium pentobarbital 50-100 mg to effect. Plane of anesthesia was maintained throughout the study using 1% to 2% isoflurane. Left and right heart catheterization was performed via a femoral arteriotomy and venotomy. After each catheterization, the vessels were repaired using 6-0 silk and the skin closed with 4-0 suture. Microembolizations were discontinued when LV ejection fraction, determined angiographically, was between 30% and 40%. A period of 2 weeks was allowed after the last embolization to ensure that infarctions produced by the last microembolizations have completely healed and heart failure was established. The study protocol was then performed.
(§3) Healthy, conditioned, purpose-bred mongrel dogs weighing between 19 and 25 kg.
(§4) A randomized, blinded, placebo controlled study design was used. A total of 28 dogs underwent multiple sequential intracoronary microembolizations as described above to produce chronic heart failure. Two weeks after the last embolization, dogs were randomized into 4 study groups (treatment arms). Dogs were randomized to 3 months oral therapy with ranolazine alone (375 mg, bid, n=7), ranolazine (375 mg bid) in combination with metoprolol tartrate (25 mg bid, n=7), ranolazine (375 mg bid) in combination with enalapril (10 mg bid, n=7), or placebo (ranolazine vehicle bid, n=7). Hemodynamic, angiographic, echocardiographic, Doppler and neurohumoral measurements were made prior to randomization (2 weeks after the last embolization) and after completion of therapy (3 months after initiating therapy). After completing the final hemodynamic and angiographic study, dogs were euthanized and the hearts removed and tissue prepared and saved for future histological and biochemical evaluations. The study primary and secondary end-points were as follows:
Evaluation of plasma concentrations of several neurohormones were made to complement the hemodynamic assessments. Measurements were made at each of the study time periods described for hemodynamic and angiographic assessments. Transmyocardial PNE concentration was estimated by obtaining blood samples from the ascending aorta and coronary sinus during cardiac catheterization. Transmyocardial PNE was calculated as the difference between the two samples. Venous blood samples were obtained in duplicate from conscious dogs prior to cardiac catheterizations for measurement of plasma concentration of norepinephrine, plasma renin activity and plasma atrial natriuretic factor using radioimmunoassay. In addition, blood samples were obtained at the same time intervals for determination of serum electrolytes (Na+, K+, creatinine and BUN).
(§5) To ensure that all study measures were similar at baseline, comparisons were made between all 4 study groups before any embolizations and at the time of randomization before initiation of therapy. For these comparisons, a one way analysis of variance (ANOVA) was used with a set at 0.05. If significance was attained, then group wise comparisons were made using the Student-Newman-Kuels test with significance set at p≦0.05. […]

[2] = tested on: dogs with chronic heart failure produced by multiple sequential intracoronary microembolizations; assay: Histomorphometric evaluations of LV tissue of dogs with chronic heart failure
Excerpt: as §1, §2, §3, §4
On the day of sacrifice, after completion of all hemodynamic and angiographic studies, the dog's chest was opened through a left thoracotomy, the pericardium was opened and the heart rapidly removed and placed in ice-cold, Tris buffer (pH 7.4). Three 2 mm thick transverse slices were obtained from the LV; one slice from the basal third, one from the middle third and one from the apical third and placed in 10% formalin. Transmural blocks were also obtained and rapidly frozen in isopentane cooled to −160° C. by liquid nitrogen and stored at −70° C. until needed. LV tissue samples were also obtained and stored in gluteraldehyde for future scanning and transmission electron microscopic studies.
From each heart, 3 transverse slices one from the basal third, middle third and apical third of the LV, each […], were obtained. For comparison, tissue samples from 7 normal dogs were obtained and prepared in an identical manner. From each transverse slice, transmural tissue blocks were obtained and embedded in paraffin blocks. From each block, 6 μm thick sections were prepared and stained with Gomori trichrome to identify fibrous tissue. […]

[3] = tested on: dogs with chronic heart failure produced by multiple sequential intracoronary microembolizations; assay: Hemodynamic measurements in dogs with chronic heart failure, 3 months oral therapy
Excerpt: as §1, §2, §3, §4
All hemodynamic measurements were made during left and right heart catheterizations in anesthetized dogs. Baseline measurements, prior to any microembolizations, were be made to ensure that all hemodynamic parameters are within normal limits. Abnormal dogs were excluded from the study. The following parameters were measured in all dogs at all three study time periods: heart rate, mean aortic pressure, peak rate of change of LV pressure during isovolumic contraction (peak+dP/dt) and relaxation (peak−dP/dt), and LV end-diastolic pressure.
as §5, with “p≦0.05. Within group comparisons between pre-treatment and post-treatment measures were made using a Students paired t-test with p<0.05 considered significant. To assess treatment effect, the change (Δ) in each measure from pre-treatment to post-treatment was calculated for each of the 4 study arms.” for “p≦0.05.”

[4] = POST: after 3 months of oral therapy bid
[5] = PRE: at time of randomization, before therapy
[6] = change from pre-treatment to post-treatment (3 months)
[7] = POST: after 3 months of oral therapy bid, mean±SEM
[8] = PRE: at time of randomization, before therapy, mean±SEM
[9] = change from pre-treatment to post-treatment (3 months), mean±SEM

COc1ccccc1OCC(O)CN1CCN(CC(=O)Nc2c(C)cccc2C)CC1 (racemic) [RAN Alone, (±)-N-(2,6-dimethylphenyl)-4-[2-hydroxy-3-(2-methoxyphenoxy)-propyl]-1-piperazineacetamide]
T-PNE = transmyocardial norepinephrine [1, 4]: −2.9 ± 6.1
ANF = atrial natriuretic factor [1, 4]: 67 ± 11 pg/mL
BUN = blood urea nitrogen [1, 4]: 15 ± 2 mg/dL
Creat = serum creatinine [1, 4]: 1.0 ± 0.1 mg/dL
K+ (serum electrolyte) [1, 4]: 4.7 ± 0.1
Na+ (serum electrolyte) [1, 4]: 147 ± 0.8
PNE = plasma norepinephrine [1, 4]: 199 ± 43 pg/mL
PRA = plasma rennin activity [1, 4]: 1.57 ± .55 ng/mL/h
T-PNE = transmyocardial norepinephrine [1, 5]: 8.6 ± 7.0
ANF = atrial natriuretic factor [1, 5]: 87 ± 15 pg/mL
BUN = blood urea nitrogen [1, 5]: 18 ± 2 mg/dL
Creat = serum creatinine [1, 5]: 0.9 ± 0.0 mg/dL
K+ (serum electrolyte) [1, 5]: 4.5 ± 0.1
Na+ (serum electrolyte) [1, 5]: 147 ± 0.5
PNE = plasma norepinephrine [1, 5]: 217 ± 25 pg/mL
PRA = plasma rennin activity [1, 5]: 1.69 ± .71 ng/mL/h
Δ ANF (atrial natriuretic factor) [1, 6]: 20 ± 14 pg/mL
Δ BUN (blood urea nitrogen) [1, 6]: -2.1 ± 1.4 mg/dL
Δ Creat (serum creatinine) [1, 6]: 0.0 ± 0.1 mg/dL
Δ K+ [1, 6]: 0.1 ± 0.1
Δ Na+ [1, 6]: −0.3 ± 1.0
Δ PNE (plasma norepinephrine) [1, 6]: -19 ± 42 pg/mL
Δ PRA (plasma rennin activity) [1, 6]: 0.13 ± 0.92 ng/mL/h
Δ T-PNE (transmyocardial norepinephrine) [1, 6]: −11 ± 9
VFRF = volume fraction of replacement fibrosis ([2]; LV tissue after 3 months of therapy, mean±SEM, normal dogs 0 ± 0, placebo 14.6 ± 1.2): 10.5 ± 2.1 %
VFIF = volume fraction of interstitial fibrosis ([2]; LV tissue after 3 months of therapy, mean±SEM, normal dogs 3.7 ± 0.1, placebo 13.0 ± 0.7): 11.0 ± 0.4 %
ODD = oxygen diffusion distance ([2]; LV tissue after 3 months of therapy, mean±SEM, normal dogs 8.9 ± 0.2, placebo 11.5 ± 0.3): 10.9 ± 0.2 μm
MCSA = myocyte cross-sectional area ([2]; LV tissue after 3 months of therapy, mean±SEM, normal dogs 409 ± 10, placebo 772 ± 21): 685 ± 23 μm2
CD = capillary density ([2]; LV tissue after 3 months of therapy, mean±SEM, normal dogs 2607 ± 80, placebo 1706 ± 28): 1832 ± 43 capillaries/mm2
Histomorphometric measures (myocyte cross-sectional area, replacement and interstitial fibrosis, oxygen diffusion distance, capillary density) compared to placebo ([2]; after 3 months of therapy): significantly improved
+dP/dt = peak LV +dP/dt [3, 7]: 1416 ± 124 mmHg/sec
HR = heart rate [3, 7]: 80 ± 4 beats/min
LVEDP = LV end-diastolic pressure [3, 7]: 10 ± 1 mmHg
mAoP = mean aortic pressure [3, 7]: 81 ± 7 mmHg
−dP/dt = peak LV −dP/dt [3, 7]: 1460 ± 134 mmHg/sec
+dP/dt = peak LV +dP/dt [3, 8]: 1253 ± 119 mmHg/sec
HR = heart rate [3, 8]: 77 ± 2 beats/min
LVEDP = LV end-diastolic pressure [3, 8]: 14 ± 1 mmHg
mAoP = mean aortic pressure [3, 8]: 72 ± 3 mmHg
−dP/dt = peak LV −dP/dt [3, 8]: 1254 ± 74 mmHg/sec
LV end-diastolic pressure, intra-group comparison pre- vs post-treatment ([3]; at the end of 3 months of treatment): decreased significantly
Δ +dP/dt (peak LV +dP/dt) [3, 9]: 163 ± 81 mmHg/sec
Δ HR (heart rate) [3, 9]: 3.3 ± 4.9 beats/min
Δ LVEDP (LV end-diastolic pressure) [3, 9]: −4.4 ± 1.1 mmHg
Δ mAoP (mean aortic pressure) [3, 9]: 9.1 ± 6.9 mmHg
Δ −dP/dt (peak LV −dP/dt) [3, 9]: 206 ± 109 mmHg/sec
